The values below are quoted from earlier work in patent publication US8455508B2, “Sustained release parenteral formulations of buprenorphine” (priority 2007, dated 2013).

Structures are written as SMILES.

For the data set the following is noted: in oil.

Consider `CCCCCCCCCC(=O)Oc1ccc2c3c1OC1C4(OC)CCC5(CC4C(C)(O)C(C)(C)C)C(C2)N(CC2CC2)CCC315` (stereo not shown) [buprenorphine decanoate], for which the “duration of action relative to buprenorphine HCl in saline” value is recorded as 14 fold.
